# In US20240409585A1, “MACROCYCLIC IMMUNOMODULATORS” (priority 2021, published 2024):
# Bridge positions count the residues as written; N and C are the ends. Square brackets hold non-standard residues; d marks the D form. Peptide text beside a SMILES is read from it. * marks the point of attachment. Bip(4'-NHAc) = CC(=O)Nc1ccc(-c2ccc(C[C@H](N)C(=O)O)cc2)cc1; Phe(3-CF3) = N[C@@H](Cc1cccc(C(F)(F)F)c1)C(=O)O; Ala(morpholin-4-yl) = N[C@@H](CN1CCOCC1)C(=O)O; Phe(4-COOH) = N[C@@H](Cc1ccc(C(=O)O)cc1)C(=O)O; Bip = N[C@@H](Cc1ccc(-c2ccccc2)cc1)C(=O)O; Abu(3R-NH2) = C[C@@H](N)[C@H](N)C(=O)O; Phe(3-Me) = Cc1cccc(C[C@H](N)C(=O)O)c1; Val(3-OH) = CC(C)(O)[C@H](N)C(=O)O; hPhe = N[C@@H](CCc1ccccc1)C(=O)O; 2Pal = N[C@@H](Cc1ccccn1)C(=O)O; Cha = N[C@@H](CC1CCCCC1)C(=O)O; Carboxymethyl = O=C(O)C*; NMeA = CN[C@@H](C)C(=O)O; Orn = NCCC[C@H](N)C(=O)O; Dab = NCC[C@H](N)C(=O)O
# Biological target: T1, Alexa fluor-647 labeled human PD-L1-Ig binding to Jurkat cell line over-expressing human PD-1 (Homo sapiens, UniProt Q15116)
# T1 construct: expressed in transfected cells; host or cells: Jurkat
# Assay: Jurkat-PD-1 Cell Binding High-Content Screening Assay (CBA): Method 3 (Alexa fluor-647 labeled PD-L1-Ig)
# Conditions: Jurkat-PD-1 cells, Alexa fluor-647 labeled PD-L1-Ig 177 nM; head μM; read-out: CBA Method 3 μM
# Procedure: Jurkat-PD-1 Cell Binding High-Content Screening Assay (CBA): Method 3
# Alexa fluor-647 was covalently linked to the Ig epitope tag of human PD-L1-Ig and fluorescently labeled PD-L1-Ig was used for the binding studies with a Jurkat cell line over-expressing human PD-1. Briefly, 2.5×10^4 Jurkat-hPD-1 cells were seeded into 384 well plates in 20 μl of RPMI supplemented with 10% fetal calf serum. 12.5 nl of compound was added to cells followed by incubation at 37° C. for 2 hours. Then, 10 ul of Alexa fluor-647 labeled PD-L1-Ig (177 nM final), diluted in RPMI supplemented with 10% fetal calf serum was added to the cells and incubated for 1 hour. Cells were then fixed with 4% paraformaldehyde containing 10 μg/ml Hoechst 33342 and then washed 3× in 100 ul PBS and 100 ul of PBS was added in the final step. Data was collected using the Operetta High Content Imager and the data was analyzed using the columbus software.
# T1 sequence (Q15116 25-288): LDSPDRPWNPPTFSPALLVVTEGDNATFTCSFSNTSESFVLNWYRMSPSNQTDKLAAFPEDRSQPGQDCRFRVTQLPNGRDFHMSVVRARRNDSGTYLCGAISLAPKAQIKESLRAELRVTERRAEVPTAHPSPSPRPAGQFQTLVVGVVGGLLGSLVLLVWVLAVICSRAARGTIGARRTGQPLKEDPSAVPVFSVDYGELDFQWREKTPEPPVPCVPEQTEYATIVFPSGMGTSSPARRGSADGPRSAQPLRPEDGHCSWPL
row,SMILES,IC50
1,CC(=O)Nc1ccc(-c2ccc(C[C@@H]3NC(=O)[C@H](Cc4cccc(C(F)(F)F)c4)NC(=O)[C@H](CC(=O)O)NC(=O)[C@H](Cc4ccc(C(=O)O)cc4)NC(=O)[C@H](CC(C)C)NC(=O)CSC[C@@H](C(=O)N[C@@H](CCN)C(N)=O)NC(=O)[C@H](CCC(=O)O)NC(=O)[C@H](C(C)C)NC(=O)[C@H](CC4CCCCC4)NC(=O)[C@H](CCN)NC(=O)[C@@H](CC(C)C)NC(=O)[C@H](C)N(C)C(=O)[C@H](CCCN)NC(=O)[C@H](Cc4ccc(-c5ccccc5)cc4)NC3=O)cc2)cc1 [Example 5094] ({CH2CO}-L[Phe(4-COOH)]D[Phe(3-CF3)][Bip(4'-NHAc)][Bip][Orn][NMeA][dL][Dab][Cha]VEC[Dab]-NH2; thioether N-14),0.03 µM
2,Cc1cccc(C[C@@H]2NC(=O)[C@H](CC(=O)O)NC(=O)[C@H](Cc3ccc(OCC(=O)O)cc3)NC(=O)[C@H](Cc3ccccn3)NC(=O)CSC[C@@H](C(=O)N[C@@H](CCN)C(N)=O)NC(=O)[C@H](CCCN)NC(=O)[C@H](C(C)C)NC(=O)[C@H](CC3CCCCC3)NC(=O)[C@H](CCN)NC(=O)[C@@H](CC(C)C)NC(=O)[C@H](C)N(C)C(=O)[C@H](CCC(N)=O)NC(=O)[C@H](Cc3ccc(-c4ccccc4)cc3)NC(=O)[C@H](Cc3ccc(C(=O)O)cc3)NC2=O)c1 [Example 5172] ({CH2CO}-[2Pal]Y(Carboxymethyl)D[Phe(3-Me)][Phe(4-COOH)][Bip]Q[NMeA][dL][Dab][Cha]V[Orn]C[Dab]-NH2; thioether N-14),0.33 µM
3,CC(C)C[C@H]1NC(=O)[C@H](C)N(C)C(=O)[C@H](CCC(N)=O)NC(=O)[C@H](Cc2ccc(-c3ccccc3)cc2)NC(=O)[C@H](CCc2ccccc2)NC(=O)[C@H](Cc2cccc(C(F)(F)F)c2)NC(=O)[C@H](CC(=O)O)NC(=O)[C@H](Cc2ccc(OCC(=O)O)cc2)NC(=O)[C@H]([C@@H](C)N)NC(=O)CSC[C@@H](C(=O)N[C@@H](CCN)C(N)=O)NC(=O)[C@H](CCC(N)=O)NC(=O)[C@H](C(C)C)NC(=O)[C@H](CC2CCCCC2)NC(=O)[C@H](CCN)NC1=O [Example 5223] ({CH2CO}-[Abu(3R-NH2)]Y(Carboxymethyl)D[Phe(3-CF3)][hPhe][Bip]Q[NMeA][dL][Dab][Cha]VQC[Dab]-NH2; thioether N-14),0.05 µM
4,Cc1cccc(C[C@@H]2NC(=O)[C@H](CC(=O)O)NC(=O)[C@H](Cc3ccc(C(=O)O)cc3)NC(=O)[C@H](CN3CCOCC3)NC(=O)CSC[C@@H](C(=O)N[C@@H](CCN)C(N)=O)NC(=O)[C@H](CCC(=O)O)NC(=O)[C@H](C(C)C)NC(=O)[C@H](CC3CCCCC3)NC(=O)[C@H](CCN)NC(=O)[C@@H](CC(C)C)NC(=O)[C@H](C)N(C)C(=O)[C@H](Cc3ccc(C(=O)O)cc3)NC(=O)[C@H](Cc3ccc(-c4ccccc4)cc3)NC(=O)[C@H](Cc3ccc(C(=O)O)cc3)NC2=O)c1 [Example 5259] ({CH2CO}-[Ala(morpholin-4-yl)][Phe(4-COOH)]D[Phe(3-Me)][Phe(4-COOH)][Bip][Phe(4-COOH)][NMeA][dL][Dab][Cha]VEC[Dab]-NH2; thioether N-14),0.01 µM
5,CC(=O)Nc1ccc(-c2ccc(C[C@@H]3NC(=O)[C@H](Cc4cccc(C(F)(F)F)c4)NC(=O)[C@H](CC(=O)O)NC(=O)[C@H](Cc4ccc(C(=O)O)cc4)NC(=O)[C@H](CC(C)C)NC(=O)CSC[C@@H](C(=O)N[C@@H](CCN)C(N)=O)NC(=O)[C@H](CCCN)NC(=O)[C@H](C(C)C)NC(=O)[C@H](CC4CCCCC4)NC(=O)[C@H](CCN)NC(=O)[C@@H](CC(C)C)NC(=O)[C@H](C)N(C)C(=O)[C@H](CCCN)NC(=O)[C@H](Cc4ccc(-c5ccccc5)cc4)NC3=O)cc2)cc1 [Example 5096] ({CH2CO}-L[Phe(4-COOH)]D[Phe(3-CF3)][Bip(4'-NHAc)][Bip][Orn][NMeA][dL][Dab][Cha]V[Orn]C[Dab]-NH2; thioether N-14),0.04 µM

# Same assay, conditions: Jurkat-PD-1 cells, Alexa fluor-647 labeled PD-L1-Ig 177 nM; nM; read-out: CBA Method 3
row,SMILES,IC50
1,Cc1cccc(C[C@@H]2NC(=O)[C@H](CC(=O)O)NC(=O)[C@H](Cc3ccc(OCC(=O)O)cc3)NC(=O)[C@H](CCC(=O)O)NC(=O)CSC[C@@H](C(=O)N[C@@H](CCN)C(N)=O)NC(=O)[C@H](CCCN)NC(=O)[C@H](C(C)C)NC(=O)[C@H](CC3CCCCC3)NC(=O)[C@H](CCN)NC(=O)[C@@H](CC(C)C)NC(=O)[C@H](C)N(C)C(=O)[C@H](CCC(N)=O)NC(=O)[C@H](Cc3ccc(-c4ccccc4)cc3)NC(=O)[C@H](Cc3ccc(C(=O)O)cc3)NC2=O)c1 [Example 5170] ({CH2CO}-EY(Carboxymethyl)D[Phe(3-Me)][Phe(4-COOH)][Bip]Q[NMeA][dL][Dab][Cha]V[Orn]C[Dab]-NH2; thioether N-14),0.0059 µM
2,Cc1cccc(C[C@@H]2NC(=O)CSC[C@@H](C(=O)N[C@@H](CCN)C(N)=O)NC(=O)[C@H](CCCN)NC(=O)[C@H](C(C)C)NC(=O)[C@H](CC3CCCCC3)NC(=O)[C@H](CCN)NC(=O)[C@@H](CC(C)C)NC(=O)[C@H](C)N(C)C(=O)[C@H](CCC(N)=O)NC(=O)[C@H](Cc3ccc(-c4ccccc4)cc3)NC(=O)[C@H](Cc3ccc(C(=O)O)cc3)NC(=O)[C@H](Cc3cccc(C)c3)NC(=O)[C@H](CC(=O)O)NC(=O)[C@H](Cc3ccc(OCC(=O)O)cc3)NC2=O)c1 [Example 5273] ({CH2CO}-[Phe(3-Me)]Y(Carboxymethyl)D[Phe(3-Me)][Phe(4-COOH)][Bip]Q[NMeA][dL][Dab][Cha]V[Orn]C[Dab]-NH2; thioether N-14),0.0005 µM
3,Cc1cccc(C[C@@H]2NC(=O)[C@H](CC(=O)O)NC(=O)[C@H](Cc3ccc(OCC(=O)O)cc3)NC(=O)[C@H](C)NC(=O)CSC[C@@H](C(=O)N[C@@H](CCN)C(N)=O)NC(=O)[C@H](CCCN)NC(=O)[C@H](C(C)C)NC(=O)[C@H](CC3CCCCC3)NC(=O)[C@H](CCN)NC(=O)[C@@H](CC(C)C)NC(=O)[C@H](C)N(C)C(=O)[C@H](CCC(N)=O)NC(=O)[C@H](Cc3ccc(-c4ccccc4)cc3)NC(=O)[C@H](Cc3ccc(C(=O)O)cc3)NC2=O)c1 [Example 5266] ({CH2CO}-AY(Carboxymethyl)D[Phe(3-Me)][Phe(4-COOH)][Bip]Q[NMeA][dL][Dab][Cha]V[Orn]C[Dab]-NH2; thioether N-14),0.002 µM
4,Cc1cccc(C[C@@H]2NC(=O)[C@H](CC(=O)O)NC(=O)[C@H](Cc3ccc(OCC(=O)O)cc3)NC(=O)[C@H](Cc3ccc(OCC(=O)O)cc3)NC(=O)CSC[C@@H](C(=O)N[C@@H](CCN)C(N)=O)NC(=O)[C@H](CCCN)NC(=O)[C@H](C(C)C)NC(=O)[C@H](CC3CCCCC3)NC(=O)[C@H](CCN)NC(=O)[C@@H](CC(C)C)NC(=O)[C@H](C)N(C)C(=O)[C@H](CCC(N)=O)NC(=O)[C@H](Cc3ccc(-c4ccccc4)cc3)NC(=O)[C@H](Cc3ccc(C(=O)O)cc3)NC2=O)c1 [Example 5168] ({CH2CO}-Y(Carboxymethyl)Y(Carboxymethyl)D[Phe(3-Me)][Phe(4-COOH)][Bip]Q[NMeA][dL][Dab][Cha]V[Orn]C[Dab]-NH2; thioether N-14),0.0014 µM
5,Cc1cccc(C[C@@H]2NC(=O)[C@H](CC(=O)O)NC(=O)[C@H](Cc3ccc(OCC(=O)O)cc3)NC(=O)[C@H](C(C)(C)O)NC(=O)CSC[C@@H](C(=O)N[C@@H](CCN)C(N)=O)NC(=O)[C@H](CCCN)NC(=O)[C@H](C(C)C)NC(=O)[C@H](CC3CCCCC3)NC(=O)[C@H](CCN)NC(=O)[C@@H](CC(C)C)NC(=O)[C@H](C)N(C)C(=O)[C@H](CCC(N)=O)NC(=O)[C@H](Cc3ccc(-c4ccccc4)cc3)NC(=O)[C@H](Cc3ccc(C(=O)O)cc3)NC2=O)c1 [Example 5275] ({CH2CO}-[Val(3-OH)]Y(Carboxymethyl)D[Phe(3-Me)][Phe(4-COOH)][Bip]Q[NMeA][dL][Dab][Cha]V[Orn]C[Dab]-NH2; thioether N-14),0.0016 µM
